Reference: patent US20200199530A1, “METHODS OF DIFFERENTIATING STEM CELL-DERIVED ECTODERMAL LINEAGE PRECURSORS” (MEMORIAL SLOAN-KETTERING CANCER CENTER, priority 2017, published 2020)

Assays:
[1] = test system: hPSCs; test: Tolerability of small molecules during E6-based differentiation; assay type: cell-based, human; details: had to be re-titrated
[2] = test system: SIX1 placode cells (PAX3 expression); test: Trigeminal placode induction by CHIR99021 pulse; assay type: cell-based, human; details: additional pulse after the placode-inducing BMP pulse
Method: (§1) All differentiations starting from E8 were dissociated into single cells using EDTA and re-plated at high density in E8 with the ROCK inhibitor (Tocris). Cells were typically seeded at a density of 200,000 cells/cm^2 on Matrigel coated dishes. Switching from E8 to E6 triggered differentiations (i.e. d0). Neuroectoderm (NE) formation was generated by culturing the cells in E6 with 10 μM SB and 500 nM LDN until d12. Neural Crest (NC) was first treated with 10 μM SB, 600 nM CHIR and 1 ng/ml BMP4 from d0-d2. At d3, cells were maintained in 10 μM SB with 1.5 uM CHIR until d12. Lens placode was first treated with 10 μM SB and 5 ng/ml BMP4 from d0-d2. At d3, cells were maintained in 10 μM SB with 50 ng/ml FGF2 until d12. Trigeminal placode was first treated with 10 μM SB and 5 ng/ml BMP4 from d0-d2. At d2, 600 nm CHIR was added. At d3, cells were treated with 10 μM SB and 600 nM CHIR. From d4-d12, cells were treated with 10 μM SB. Finally, non-neural ectoderm (NNE) was treated with 10 μM SB, 10 μM SU5402 and 10 ng/ml BMP4 from d0-d1, and then treated with 10 μM SB and 5 ng/ml BMP4 from d2-d12.
Trigeminal Placode differentiation. Day 0 (0-24 hrs): Add E6 media containing 5 ng/ml BMP4+10 μM SB to cells.
Day 1 (24-48 hrs): Change media with E6 media containing 5 ng/ml BMP4+10 μM SB to cells.
Day 2 (48-72 hrs): Change media with E6 media containing 5 ng/ml BMP4+10 μM SB+600 nM CHIR to cells. […]

[3] = test system: rodent GSK3β homologs; details: cited from earlier work
[4] = test system: hPSC differentiated towards pituitary placode; test: Pituitary placode induction from hPSC; assay type: cell-based, human; details: 1 μM, with FGF8 and FGF10, day 15
Method: For pituitary differentiation cells were plated at 250 000 cells/cm^2 on VTN-N coated dishes (differentiation works best in 24 well plates) in E8+10 μM Y-27632. After 24 h (day0) medium was changed to E6 supplemented with 10 μM SB431542 and 5 ng/ml BMP4 (R&D Systems). Medium was changed every day. On day 3 BMP4 was removed from the medium and cells were cultured for 1 day in E6+10 μM SB431542. For the standard differentiation conditions, on day 4 E6 was supplemented with 10 μM SB431542, 200 ng/ml SHH (R&D Systems, C25II), 100 ng/ml FGF8b (R&D Systems) and 50 ng/ml FGF10 (Peprotech Inc.). For some experiments SHH was replaced by 1 μM purmorphamine (Stemgent) or 1 μM SAG (Stemcell Technologies). From now on medium volume was doubled and cells were feed every other day until day 15. […] Purified cells were then plated as droplets (50 000 cells/10 μl drop) in E6 supplemented with 10 μM Y-27632, 200 ng/ml SHH, 100 ng/ml FGF8b and 50 ng/ml FGF10 on polyornithine/laminin/fibronectin-coated plates. After 24 h medium was changed to E6 containing SHH, FGF8 and FGF10 until day 30. Medium was changed every other day. […] For quantitative RT PCR the present example used the SSoFast EvaGreen Mix (BioRad) in combination with QuantiTect primer assays (Qiagen) on a BioRad CFX96 Thermal Cycler. […] Results are calculated using the ΔΔCt method (Livak and Schmittgen, 2001).

[5] = test system: human pluripotent stem cells (PAX6::H2B-GFP reporter); test: Neuroectoderm induction in E6 media, PAX6 positive cells; assay type: cell-based; details: day 12 post induction, no small molecules ~40%
Method: as §1
Neuroectoderm differentiation. Day 0 (0-24 hrs): Add E6 media containing 500 nM LDN+10 μM SB to cells. To skew the differentiation more toward an anterior neuroectoderm, add E6 media containing 500 nM LDN+10 μM SB+5 μM XAV to cells. […]

## Cc1c[nH]c(-c2cnc(NCCNc3ccc(C#N)cn3)nc2-c2ccc(Cl)cc2Cl)n1 [CHIR99021, 6-(2-(4-(2,4-dichlorophenyl)-5-(4-methyl-1H-imidazol-2-yl)pyrimidin-2-ylamino)ethylamino)nicotinonitrile]
[1]
  cell killing at the original (KSR protocol) concentration: effectively killed the cells
[2]
  PAX3 expression in placode cells: capable of triggering PAX3+ and PAX6− expression
[3]
  IC50 values against rodent GSK3β homologs: nanomolar

## CNC1CCC(N(Cc2cccc(-c3ccncc3)c2)C(=O)c2sc3ccccc3c2Cl)CC1 (stereo not drawn) [SAG]
[4]
  replacement of recombinant SHH in pituitary induction: can be replaced

## NC(=O)c1ccc(-c2nc(-c3ccc4c(c3)OCO4)c(-c3ccccn3)[nH]2)cc1 [SB431542, 4-[4-(1,3-benzodioxol-5-yl)-5-(2-pyridinyl)-1H-imidazol-2-yl]-benzamide]
[5]
  percentage of cells expressing PAX6: ~90%

## c1ccc2c(Oc3nc(Nc4ccc(N5CCOCC5)cc4)c4ncn(C5CCCCC5)c4n3)cccc2c1 [purmorphamine]
[4]
  replacement of recombinant SHH in pituitary induction: can be replaced
